The results in this text go back to patent publication US20040122061A1, “Inhibitors of post-amadori advanced glycation end products” (BioStratum, Inc., priority 2002, published 2004).

Data set [1] concerns conversion of Amadori compounds to post Amadori advanced glycation endproducts (bovine serum albumin and ribonuclease A glycated by ribose). The data set can be described thus: Interrupted glycation: inhibition of post-Amadori AGE formation. It is filed as biochemical. The following applies: interrupted glycation with ribose, 37° C., pH 7.5; read-out: IC50 for inhibiting the conversion of Amadori compounds to post Amadori advanced glycation endproducts. The protocol:
The effect of [2,4′]Bipyridinyl-3′-ol, 5-Hydroxymethyl-4-(1H-imidazol-2-yl)-2-methyl-pyridin-3-ol, and 4-(1H-Imidazol-2-yl)-pyridin-3-ol on post-Amadori AGE formation during interrupted glycation of bovine serum albumin and ribonuclease A by ribose was determined in comparison to pyridoxamine. Modification with ribose was done at 37° C. in 0.2 M phosphate buffer of pH 7.5 containing 0.02% sodium azide. The solutions were kept in capped tubes and opened only to remove timed aliquots that were immediately frozen for later carrying out the various analyses. “Interrupted glycation” experiments were carried out by first incubating protein with the ribose at 37° C. for 8 or 24 h, followed by immediate and extensive dialysis against frequent cold buffer changes at 4° C. The samples were then re-incubated by quickly warming to 37° C. in the absence of external ribose. Aliquots were taken and frozen at various intervals for later analysis. (See U.S. Pat. No. 5,985,857)
The interrupted glycation method for following post-Amadori kinetics of AGE formation allows for the rapid quantitative study of “late” stages of the glycation reaction. Importantly, this method allows for inhibition studies that are free of pathways of AGE formation that arise from glycoxidative products of free sugar or Schiff base (Namiki pathway). The experiments were designed to determine the half-maximal inhibitory concentration of these compounds (“IC50 values”) for inhibiting the conversion of Amadori compounds to post Amadori advanced glycation endproducts.

The next data set has as its target T1, bovine serum albumin (Bos taurus, UniProt P02769).
T1 construct: from tissue; host or cells: plasma / serum (from the name; preparation not described)
Description: Compound binding to plasma albumin (ultrafiltration, free compound), BSA. It is filed as in vitro ADME. The note with it: BSA 40 mg/ml; for fraction unbound at 8 μg/ml: compound 8 μg/ml; for Kd: read-out: Computed (1:1) Kd. The protocol:
(§1) This study was done to measure the binding of compounds of the present invention to plasma albumin. Such binding can result in longer plasma retention times and enhanced therapeutic efficacy for the compounds. The proteins tested were bovine serum albumin, bovine (BSA) at 40 mg/ml and rat albumin at ˜13 mg/ml.
(§2) Spectrophotmetry: Two mL of protein solution in 0.1M phosphate buffer saline (PBS) at pH 7.4 was titrated with compound in 0.2 M phosphate buffer at pH 7.4. The protein concentration was prepared to have absorbance less than 1 at the observation wavelength range (250-500), and the total volume change during titration was controlled below 2%. The compound-protein binding detection was based on the shift of spectrum.
Free compound measurement: One ml of compound and protein mixture was incubated at 37° C. for about 30 min and loaded into Centricon YM-10 (10,000 MW cut-off, for BSA) or Microcon YC-3 (3,000 MW cut-off). The samples were centrifuged in a fixed-angle rotor at 6,000 rpm for about 6-8 min (Centricon) or at 9,000 rpm for about 15 min (Microcon) to allow about 10-20% of the volume to filter through. Free compound passes through the membrane while the free and complexed protein remains in the sample reservoir. The concentration of free compound in the filtrate is assumed to be the same as in the sample above the membrane. A fixed amount of filtrate aliquot was diluted to 0.6 ml with PBS at pH 7.4 (PBS was prepared using 1 tablet from Sigma dissolved in 200 ml deionized H2O) and measured by UV absorbance. To quantify the percentage of free compound, the same compound at the same concentration in PBS solution, as standard, was prepared in parallel through the same process, or a calibration curve was generated through the same process. 1 ml of PBS solution (as blank) and 1 ml of protein solution (as control) also went through the same process and measurement.
Calculations: The method used to determine the percentage of free compound was either (a) % Free compound=(Asample−Acontrol)/Astandard×100, where, A is absorbance at selected wavelength; or (b) Obtaining free compound concentration of sample from calibration curve, and then divided by total concentration: Kd=[P][L]/[PL] (for 1:1 binding), using BSA MW=70,000.

Data set [2] relates to streptozotocin (STZ)-diabetic rats. Description: Rat model of diabetic neuropathy (STZ-diabetic rats). It is filed as in vivo. The note with it: 50 mg/L in drinking water. How it is done: Our aim was to ascertain whether BST-4997 treatment could correct nerve dysfunction in streptozotocin (STZ)-diabetic rats. Animals (n=10) were made diabetic for 6 weeks (group D), following which they were treated for 2 weeks with BST-4997 (group DBST) given in the drinking water at a concentration of 50 mg/L. They were compared to control non-diabetic rats (groups C). Statistical significance is reported according to the legend: **, *** p<0.01, p<0.001 versus untreated controls; ### p<0.001 treatment effect versus untreated diabetics.
FIG. 13 provides a graphical representation of the effect of BST-4997 on restoring nerve conduction velocity (NCV) in the STZ rats. Motor NCV was tested between the sciatic notch and knee for the nerve branch to tibialis anterior muscle, as described in Cameron et al., Q. J. Exp. Physiol. 74: 917-926 (1989); and Cameron et al., Exp. Neurol. 92: 757-761 (1986). Saphenous sensory NCV was measured between the groin and ankle.
FIG. 14 provides a graphical representation of the effect of BST-4997 on restoring endoneurial perfusion in the STZ rats. Vascular blood flow, pressure, and conductance were measured.
FIG. 15 provides a graphical representation of the effect of BST-4997 on improving pain related measures in the STZ rats. Responses to tactile allodynia, pressure, and thermal stimuli were measured.

The next data set concerns the target T2, rat albumin (Rattus norvegicus, UniProt P02770).
T2 construct: from tissue; host or cells: plasma (from 'plasma albumin'; preparation not described)
Description: Compound binding to plasma albumin (ultrafiltration, free compound), rat albumin. Format: in vitro ADME. The note with it: compound 10 μg/ml, rat albumin ~13 mg/ml. How it is done: as §1, §2
Free compound measurement: One ml of compound and protein mixture was incubated at 37° C. for about 30 min and loaded into Centricon YM-10 (10,000 MW cut-off, for BSA) or Microcon YC-3 (3,000 MW cut-off). […] A fixed amount of filtrate aliquot was diluted to 0.6 ml with PBS at pH 7.4 (PBS was prepared using 1 tablet from Sigma dissolved in 200 ml deionized H2O) and measured by UV absorbance. To quantify the percentage of free compound, the same compound at the same concentration in PBS solution, as standard, was prepared in parallel through the same process, or a calibration curve was generated through the same process. […]

[3] abbreviates: bovine, bovine serum albumin solution (40 mg/ml), pH 7.4, 37° C.
[4] abbreviates: STZ rats diabetic 6 weeks, then 2 weeks treatment, FIG. 13.
Where [5] appears, read: STZ rats, 2 weeks treatment, FIG. 14.
Where [6] appears, read: STZ rats, 2 weeks treatment, FIG. 15.

Molecules are shown by their SMILES. Read-outs that look alike come from different tables or passages of the source.

The term IC50 denotes the concentration needed to halve the response being measured. As a reminder, the Kd is a measure of binding affinity in units of concentration.

T1 sequence (P02769 25-607): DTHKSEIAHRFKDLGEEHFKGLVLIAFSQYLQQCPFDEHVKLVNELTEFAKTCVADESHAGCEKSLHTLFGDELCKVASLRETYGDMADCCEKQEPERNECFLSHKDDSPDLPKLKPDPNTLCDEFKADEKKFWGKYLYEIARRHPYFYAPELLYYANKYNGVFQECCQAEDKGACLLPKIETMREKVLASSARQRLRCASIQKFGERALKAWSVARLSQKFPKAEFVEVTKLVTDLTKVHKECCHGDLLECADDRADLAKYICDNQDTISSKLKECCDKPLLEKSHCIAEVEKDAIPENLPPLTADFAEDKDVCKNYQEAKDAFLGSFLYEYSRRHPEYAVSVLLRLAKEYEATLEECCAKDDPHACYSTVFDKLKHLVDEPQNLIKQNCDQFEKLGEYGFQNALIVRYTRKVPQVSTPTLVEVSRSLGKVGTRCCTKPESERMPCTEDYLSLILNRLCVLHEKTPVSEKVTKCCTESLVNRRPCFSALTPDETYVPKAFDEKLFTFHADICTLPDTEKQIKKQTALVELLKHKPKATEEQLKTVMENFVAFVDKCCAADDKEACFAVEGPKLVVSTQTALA
T2 sequence (P02770 25-608): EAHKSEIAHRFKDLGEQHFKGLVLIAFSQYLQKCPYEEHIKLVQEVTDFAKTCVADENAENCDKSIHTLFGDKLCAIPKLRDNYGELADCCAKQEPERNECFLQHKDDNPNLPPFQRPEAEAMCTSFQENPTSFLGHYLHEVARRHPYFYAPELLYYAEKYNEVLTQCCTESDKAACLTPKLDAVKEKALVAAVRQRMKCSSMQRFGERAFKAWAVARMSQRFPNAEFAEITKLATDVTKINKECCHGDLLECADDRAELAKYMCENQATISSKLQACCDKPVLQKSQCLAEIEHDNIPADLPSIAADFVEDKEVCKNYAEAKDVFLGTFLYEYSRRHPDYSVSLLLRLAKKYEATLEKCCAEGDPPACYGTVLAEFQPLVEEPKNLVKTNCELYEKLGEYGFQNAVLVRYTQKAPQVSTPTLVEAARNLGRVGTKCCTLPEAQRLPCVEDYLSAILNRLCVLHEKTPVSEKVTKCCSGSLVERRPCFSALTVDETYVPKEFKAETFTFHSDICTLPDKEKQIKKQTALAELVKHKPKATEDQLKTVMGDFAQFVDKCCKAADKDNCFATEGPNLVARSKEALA

On to `Cc1ncc(CO)c(CN)c1O` [pyridoxamine, reference compound], for which the half-maximal inhibitory concentration (IC50) in data set [1] was about 3000 µM.
Take `Oc1cnccc1-c1ncc[nH]1` [BST4996, 4-(1H-Imidazol-2-yl)-pyridin-3-ol]: the half-inhibitory concentration (IC50) in data set [1] was in the range of 200 to 300 µM. This compound also registered a fraction unbound at 8 μg/ml at bovine serum albumin (setting [3]) of 0.53.
The like results for `Oc1cnccc1-c1ccccn1` [BST4944, [2,4′]Bipyridinyl-3′-ol] were, in that order, 2000 µM and 0.34.
On to `Cc1ncc(CO)c(-c2ncc[nH]2)c1O` [BST4997, 5-Hydroxymethyl-4-(1H-imidazol-2-yl)-2-methyl-pyridin-3-ol], for which the IC50 in data set [1] lay within 200 to 300 µM. For the same compound, the “diabetes-associated defect in motor nerve conduction velocity (NCV)” value in data set [2] (setting [4]) was “dramatically reduced”. The “diabetes-associated defect in sensory nerve conduction velocity (NCV)” value in data set [2] (setting [4]) was “dramatically reduced”. The “correction of nerve dysfunction” value in data set [2] (STZ rats, 2 weeks treatment) is “effective in correcting nerve dysfunction”. The “diabetes-associated defect in endoneurial blood flow” value in data set [2] (setting [5]) was “dramatically reduced”. Moreover, the “diabetes-associated defect in endoneurial vascular conductance” value in data set [2] (setting [5]) is “dramatically reduced”. Moreover, the “diabetes-associated defect in tactile allodynia” value in data set [2] (setting [6]) is reported as “dramatically reduced”. Further, in data set [2] (setting [6]), the “diabetes-associated defect in thermal hyperalgesia (latency for foot withdrawal from a noxious heat stimulus)” value is “dramatically reduced”. The fraction unbound at 5 μg/ml at bovine serum albumin (bovine, bovine serum albumin solution (40 mg/ml), compound 5 μg/ml, pH 7.4, 37° C., read-out: % Free BST4997) was 0.31. For the same compound, the fraction unbound at 10 μg/ml is 0.3 on bovine serum albumin (bovine, bovine serum albumin solution (40 mg/ml), compound 10 μg/ml, pH 7.4, 37° C., read-out: % Free BST4997) and 0.67 on rat albumin (rat albumin solution (~13 mg/ml), pH 7.4, 37° C., read-out: % Free BST4997). The fraction unbound at 20 μg/ml on bovine serum albumin (bovine, bovine serum albumin solution (40 mg/ml), compound 20 μg/ml, pH 7.4, 37° C., read-out: % Free BST4997) worked out at 0.38. In addition, the Kd was found to be 260 µM at bovine serum albumin (compound 5 μg/ml), 240 µM on bovine serum albumin (compound 10 μg/ml), 320 µM on bovine serum albumin (compound 20 μg/ml) and 350 µM at rat albumin (read-out: Computed (1:1) Kd).
